According to patent publication US20250108066A1, “TRINUCLEOTIDE CAP ANALOGS AND METHODS OF USE THEREOF” (TriLink BioTechnologies, LLC, priority 2022, published 2025):

Tested on: CD-1 mice
Assay: In vivo luciferase expression in mice injected with LNP:mRNA (Fluc mRNA capped with cap analog), whole-body bioluminescence imaging
Conditions: female CD-1 mice, LNP:mRNA 1 mg/kg single tail-vein bolus; for in vivo luciferase expression as compared to m7GpppA2′OMepG (Control): integrated flux from 3-48 hours, FIG. 2; for in vivo luciferase expression (translation) as compared to the same compound lacking the 3′OMe group on the m7G: pairwise comparison 3′OMe vs 3′OH on m7G, FIG. 4 / FIG. 2
Protocol: Female CD-1 mice of 8-9 weeks old were randomized into groups of five animals based on body weight at the beginning of the study (Charles River Laboratories, Discovery Research Services North Carolina). Lipid nanoparticle formulations including mRNA (capped using a cap analog recited in Table 1, N1-methylpseudouridine-5′-Triphosphate (N1-me-PsU) modified firefly luciferase (Fluc) mRNA) (LNP:mRNA) test articles were diluted in PBS to achieve 1 mg/kg delivery in a single bolus by tail-vein injection. The body weight of each mouse was measured once a day for the duration of the study and two blood draws were taken for serum analysis by Mouse Cytokine/Chemokine 26-Plex ProcartaPlex Panel 1 by Luminex platform (Thermo Fisher Scientific; Waltham, MA). Luciferase activity was measured by whole-body bioluminescence imaging on IVIS Spectrum CT system by Perkin Elmer (Greenville, SC) at six time points post mRNA injection (3 hours, 6 hours, 9 hours, 12 hours, 24 hours, and 48 hours hours post-injection). D-luciferin was delivered by intraperitoneal injection 10 minutes prior to each imaging session (150 mg/kg total). The measured luciferase expression results are shown in FIG. 2, showing the integrated flux from 3-48 hours. […] Luminescence intensity scale is on the left.

With `COC1C(O)[C@H](n2c[n+](C)c3c(=O)[nH]c(N)nc32)O[C@@H]1COP(=O)(O)OP(=O)([O-])OP(=O)(O)OC[C@]12COC(C1OP(=O)(O)OC[C@H]1O[C@@H](n3cnc4c(=O)[nH]c(N)nc43)C(O)C1O)[C@H](n1cnc3c(N)ncnc31)O2` (stereo in doubt) [Compound 2, ^m7G3′OMepppA2′,4′-LNApG] the “in vivo luciferase expression as compared to m7GpppA2′OMepG (Control)” value was “increased in vivo luciferase expression” and the “in vivo luciferase expression (translation) as compared to the same compound lacking the 3′OMe group on the m7G” value was “increased luciferase expression in vivo”.
With `COC1C(OP(=O)(O)OC[C@H]2O[C@@H](n3cnc4c(=O)[nH]c(N)nc43)C(O)C2O)[C@@H](COP(=O)(O)OP(=O)([O-])OP(=O)(O)OC[C@]23COC(C2O)[C@H](n2c[n+](C)c4c(=O)[nH]c(N)nc42)O3)O[C@H]1n1cnc2c(N)ncnc21` (stereo partly drawn) [Compound 32, ^m7G2′4′LNApppA2′OMepG] the “in vivo luciferase expression as compared to m7GpppA2′OMepG (Control)” value was “increased in vivo luciferase expression”.
In the case of `COC1C(OP(=O)(O)OC[C@H]2O[C@@H](n3cnc4c(=O)[nH]c(N)nc43)C(O)C2O)[C@@H](COP(=O)(O)OP(=O)([O-])OP(=O)(O)OC[C@H]2O[C@@H](n3c[n+](C)c4c(=O)[nH]c(N)nc43)C(O)C2OC)O[C@H]1n1cnc2c(N)nc(N)nc21` (stereo in doubt) [Compound 8, ^m7G3′OMeppp(diaminopurine)2′OMepG], the “in vivo luciferase expression as compared to m7GpppA2′OMepG (Control)” value was “increased in vivo luciferase expression” and the “in vivo luciferase expression (translation) as compared to the same compound lacking the 3′OMe group on the m7G” value was “increased luciferase expression in vivo”.
For `COC1C(OP(=O)(O)OC[C@H]2O[C@@H](n3cnc4c(=O)[nH]c(N)nc43)C(O)C2O)[C@@H](COP(=O)(O)OP(=O)([O-])OP(=O)(O)OC[C@H]2O[C@@H](n3c[n+](C)c4c(=O)[nH]c(N)nc43)C(O)C2OC)O[C@H]1n1cnc2c(N)ncnc21` (stereo partly drawn) [Compound 29, ^m7G3′OmepppA2′OMepG], the “in vivo luciferase expression as compared to m7GpppA2′OMepG (Control)” value was “increased in vivo luciferase expression” and the “in vivo luciferase expression (translation) as compared to the same compound lacking the 3′OMe group on the m7G” value was “increased luciferase expression in vivo”.
For `C[n+]1cn([C@@H]2O[C@H](COP(=O)(O)OP(=O)([O-])OP(=O)(O)OC[C@]34COC(C3OP(=O)(O)OC[C@H]3O[C@@H](n5cnc6c(=O)[nH]c(N)nc65)C(O)C3O)[C@H](n3cnc5c(N)ncnc53)O4)C(O)C2O)c2nc(N)[nH]c(=O)c21` (stereo in doubt) [Compound 1, ^m7GpppA2′,4′-LNApG], the “in vivo luciferase expression as compared to m7GpppA2′OMepG (Control)” value was “increased in vivo luciferase expression”.
In the case of `COC1C(OP(=O)(O)OC[C@H]2O[C@@H](n3cnc4c(=O)[nH]c(N)nc43)C(O)C2O)[C@@H](COP(=O)(O)OP(=O)([O-])OP(=O)(O)OC[C@H]2O[C@@H](n3c[n+](C)c4c(=O)[nH]c(N)nc43)C(OC)C2OC)O[C@H]1n1cnc2c(N)ncnc21` (stereo in doubt) [Compound 25, ^m7G2′OMe3′OMepppA2′OMepG], the “in vivo luciferase expression (translation) as compared to the same compound lacking the 3′OMe group on the m7G” value was “increased luciferase expression in vivo”.
In the case of `CNc1ncnc2c1ncn2[C@@H]1O[C@H](COP(=O)(O)OP(=O)([O-])OP(=O)(O)OC[C@H]2O[C@@H](n3c[n+](C)c4c(=O)[nH]c(N)nc43)C(O)C2OC)C(OP(=O)(O)OC[C@H]2O[C@@H](n3cnc4c(=O)[nH]c(N)nc43)C(O)C2O)C1OC` (stereo partly drawn) [Compound 30, ^m7G3′OMeppp^m6A2′OMepG], the “in vivo luciferase expression as compared to m7GpppA2′OMepG (Control)” value was “increased in vivo luciferase expression” and the “in vivo luciferase expression (translation) as compared to the same compound lacking the 3′OMe group on the m7G” value was “increased luciferase expression in vivo”.
`COC1[C@@H](OP(=O)(O)OC[C@H]2O[C@@H](n3cnc4c(=O)[nH]c(N)nc43)C(O)[C@H]2O)[C@@H](/C=C/P(=O)(O)OP(=O)([O-])OP(=O)(O)OC[C@H]2O[C@@H](n3c[n+](C)c4c(=O)[nH]c(N)nc43)C(O)[C@H]2OC)O[C@H]1n1cnc2c(N)ncnc21` (stereo partly drawn) [Compound 5, ^m7G3′-OMepppA2′OMe-5′vinylpG] was tested, and the “in vivo luciferase expression (translation) as compared to the same compound lacking the 3′OMe group on the m7G” value was “increased luciferase expression in vivo”.
